Results reported in US8759365B2, “Organic compounds” (Novartis AG, priority 2007, dated 2014).

The compounds below were run against rhCETP (Homo sapiens (Human), UniProt P11597) (assay: CETP in vitro assay (CETP Activity Kit, fluorescence, rhCETP)). Conditions: CETP inhibition; Table 1 does not name the assay; read-out: IC50 (nM), Inhibitory Activity of Compounds.
Format: biochemical
Method: CETP Activity Kit (#RB-RPAK) was purchased from Roar Biochemical, Inc. (New York, N.Y., USA). To each well of a 96-well NBS half-area plate (costar #3686), […] of the donor solution, 1 μL of the acceptor solution and 5 μL compound solution diluted in 100% DMSO were added in a 38 μL of buffer containing 10 mM Tris, 150 mM NaCl and 2 mM EDTA, pH 7.4. Then, the plate was sealed with Themowell™ Sealers (costar #6524) and followed by a mixing on a plate shaker by MICROPLATE MIXER MPX-96 (IWAKI) at power 3 for 10 sec at room temperature. After 10-min incubation at 37° C., the reaction was started by adding 5 μL of rhCETP solution (Cardiovascular Target, New York, N.Y., USA) and mixed on the plate shaker for 10 sec, then the fluorescence intensity at 0 min was measured by a ARVO SX (Perkin Elmerr, USA) at excitation wavelength of 465 nm and emission wavelength of 535 nm. After 120 min-incubation at 37° C., fluorescence intensity was measured again. The inhibition of rhCETP activity by a compound was calculated by the following calculation. Inhibition %={1−(F120−F0)/(f120−f0)}×100 F: measured fluorescence intensity with compound at 0 or 120 min. f: measured fluorescence intensity of without compound at 0 or 120 min.
The IC50 values are determined from the dose-effect curve by Origin software. IC50 values, especially from about 0.1 nM to about 50 μM, are determined for the compounds of the present invention or a pharmaceutically acceptable salt thereof.

Chain of rhCETP (P11597 18-493): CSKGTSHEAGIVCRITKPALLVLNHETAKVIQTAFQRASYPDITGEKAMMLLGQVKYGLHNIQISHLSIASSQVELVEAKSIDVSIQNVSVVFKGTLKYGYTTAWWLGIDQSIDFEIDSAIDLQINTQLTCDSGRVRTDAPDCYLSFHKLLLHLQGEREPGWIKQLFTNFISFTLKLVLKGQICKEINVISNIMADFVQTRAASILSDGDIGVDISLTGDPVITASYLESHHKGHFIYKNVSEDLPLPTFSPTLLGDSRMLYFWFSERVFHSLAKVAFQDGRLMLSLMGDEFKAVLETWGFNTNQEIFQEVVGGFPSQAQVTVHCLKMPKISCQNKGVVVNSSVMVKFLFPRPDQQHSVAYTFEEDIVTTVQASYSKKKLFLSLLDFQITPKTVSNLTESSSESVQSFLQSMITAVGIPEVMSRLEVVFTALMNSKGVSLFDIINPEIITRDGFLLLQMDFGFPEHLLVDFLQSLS

Compared with `CC[C@@H]1C[C@H](N(Cc2cc(C(F)(F)F)cc(C(F)(F)F)c2)c2ncc(-c3cnn(C)c3)cn2)CN1c1nc(N2CCC(O)CC2)ncc1Cl` [Example 23-10], `CC[C@@H]1C[C@H](N(Cc2cc(C(F)(F)F)cc(C(F)(F)F)c2)c2ncc(N3CC[C@H](O)C3)cn2)CN1c1nc(N2CCC(O)CC2)ncc1Cl` [Example 23-6] is 3.7-fold higher in IC50: 30 nM for the first, 110 nM for the second.

Going from `CC[C@@H]1C[C@H](N(Cc2cc(C(F)(F)F)cc(C(F)(F)F)c2)c2ncc(-c3cnn(C)c3)cn2)CN1C(=O)O[C@H](C)CC` [Example 9-4, (2R,4S)-4-{(3,5-Bis-trifluoromethyl-benzyl)-[5-(1-methyl-1H-pyrazol-4-yl)-pyrimidin-2-yl]-amino}-2-ethyl-pyrrolidine-1-carboxylic acid (R)-sec-butyl ester] to `CC[C@@H]1C[C@H](N(Cc2cc(C(F)(F)F)cc(C(F)(F)F)c2)c2ncc(-c3cnn(C)c3)cn2)CN1C(=O)O[C@@H](C)CC` [Example 9-5, (2R,4S)-4-{(3,5-Bis-trifluoromethyl-benzyl)-[5-(1-methyl-1H-pyrazol-4-yl)-pyrimidin-2-yl]-amino}-2-ethyl-pyrrolidine-1-carboxylic acid (S)-sec-butyl ester], the IC50 rises from 21 nM to 54 nM (2.6-fold). The first is the more potent here.

`CC[C@@H]1C[C@H](N(Cc2cc(C(F)(F)F)cc(C(F)(F)F)c2)c2ncc(-c3cnn(C)c3)cn2)CN1C(=O)OCC(C)(C)C` [Example 6-2, (2R,4S)-4-{(3,5-Bis-trifluoromethyl-benzyl)-[5-(1-methyl-1H-pyrazol-4-yl)-pyrimidin-2-yl]-amino}-2-ethyl-pyrrolidine-1-carboxylic acid 2,2-dimethyl-propyl ester] and `CC[C@@H]1C[C@H](N(Cc2cc(C(F)(F)F)cc(C(F)(F)F)c2)c2ncc(-c3cnn(C)c3)cn2)CN1C(=O)OCC(F)(F)F` [Example 9-2, (2R,4S)-4-{(3,5-Bis-trifluoromethyl-benzyl)-[5-(1-methyl-1H-pyrazol-4-yl)-pyrimidin-2-yl]-amino}-2-ethyl-pyrrolidine-1-carboxylic acid 2,2,2-trifluoro-ethyl ester] are within 1.5-fold of each other in IC50: 47 nM for the first, 59 nM for the second.

First: CC[C@@H]1C[C@H](N(Cc2cc(C(F)(F)F)cc(C(F)(F)F)c2)c2ncc(-c3cnn(C)c3)cn2)CN1C(=O)N1CCCCC1 [Example 16-2, ((2R,4S)-4-{(3,5-Bis-trifluoromethyl-benzyl)-[5-(1-methyl-1H-pyrazol-4-yl)-pyrimidin-2-yl]-amino}-2-ethyl-pyrrolidin-1-yl)-piperidin-1-yl-methanone]
Second: CC[C@@H]1C[C@H](N(Cc2cc(C(F)(F)F)cc(C(F)(F)F)c2)c2ncc(-c3cnn(C)c3)cn2)CN1C(=O)N1CCCC1 [Example 16, ((2R,4S)-4-{(3,5-Bis-trifluoromethyl-benzyl)-[5-(1-methyl-1H-pyrazol-4-yl)-pyrimidin-2-yl]-amino}-2-ethyl-pyrrolidin-1-yl)-pyrrolidin-1-yl-methanone]
The IC50 of the first is 1.6-fold lower: 25 nM for the first, 39 nM for the second. The first is the more potent here.

`CC[C@@H]1C[C@H](N(Cc2cc(C(F)(F)F)cc(C(F)(F)F)c2)c2ncc(-c3cnn(C)c3)cn2)CN1C(=O)C1CCCCC1` [Example 5-3, ((2R,4S)-4-{(3,5-Bis-trifluoromethyl-benzyl)-[5-(1-methyl-1H-pyrazol-4-yl)-pyrimidin-2-yl]-amino}-2-ethyl-pyrrolidin-1-yl)-cyclohexyl-methanone] and `CC[C@@H]1C[C@H](N(Cc2cc(C(F)(F)F)cc(C(F)(F)F)c2)c2ncc(-c3cnn(C)c3)cn2)CN1C(=O)OC1CCCC1` [Example 9-3, (2R,4S)-4-{(3,5-Bis-trifluoromethyl-benzyl)-[5-(1-methyl-1H-pyrazol-4-yl)-pyrimidin-2-yl]-amino}-2-ethyl-pyrrolidine-1-carboxylic acid cyclopentyl ester] are within 1.5-fold of each other in IC50: 92 nM for the first, 70 nM for the second.

`CC[C@@H]1C[C@H](N(Cc2cc(C(F)(F)F)cc(C(F)(F)F)c2)c2ncc(-c3cnn(C)c3)cn2)CN1C(=O)OCC1(CC)COC1` [Example 9-6, (2R,4S)-4-{(3,5-Bis-trifluoromethyl-benzyl)-[5-(1-methyl-1H-pyrazol-4-yl)-pyrimidin-2-yl]-amino}-2-ethyl-pyrrolidine-1-carboxylic acid 3-ethyl-oxetan-3-ylmethyl ester] and `CC[C@@H]1C[C@H](N(Cc2cc(C(F)(F)F)cc(C(F)(F)F)c2)c2ncc(-c3cnn(C)c3)cn2)CN1C(=O)OCC(C)C` [Example 6-1, (2R,4S)-4-{(3,5-Bis-trifluoromethyl-benzyl)-[5-(1-methyl-1H-pyrazol-4-yl)-pyrimidin-2-yl]-amino}-2-ethyl-pyrrolidine-1-carboxylic acid isobutyl ester] are within 1.5-fold of each other in IC50: 70 nM for the first, 69 nM for the second.

Compared with `CC[C@@H]1C[C@H](N(Cc2cc(C(F)(F)F)cc(C(F)(F)F)c2)c2ncc(-c3cnn(C)c3)cn2)CN1C(=O)N(C)C` [Example 18, (2R,4S)-4-{(3,5-Bis-trifluoromethyl-benzyl)-[5-(1-methyl-1H-pyrazol-4-yl)-pyrimidin-2-yl]-amino}-2-ethyl-pyrrolidine-1-carboxylic acid dimethylamide], `CCC(CC)OC(=O)N1C[C@@H](N(Cc2cc(C(F)(F)F)cc(C(F)(F)F)c2)c2ncc(-c3cnn(C)c3)cn2)C[C@H]1CC` [Example 9-1, (2R,4S)-4-{(3,5-Bis-trifluoromethyl-benzyl)-[5-(1-methyl-1H-pyrazol-4-yl)-pyrimidin-2-yl]-amino}-2-ethyl-pyrrolidine-1-carboxylic acid 1-ethyl-propyl ester] is 1.5-fold lower in IC50: 63 nM for the first, 41 nM for the second. The second is the more potent here.

`CC[C@@H]1C[C@H](N(Cc2cc(C(F)(F)F)cc(C(F)(F)F)c2)c2ncc(-c3cnn(C)c3)cn2)CN1C(=O)OCC1CCOCC1` [Example 7-6, (2R,4S)-4-{(3,5-Bis-trifluoromethyl-benzyl)-[5-(1-methyl-1H-pyrazol-4-yl)-pyrimidin-2-yl]-amino}-2-ethyl-pyrrolidine-1-carboxylic acid tetrahydro-pyran-4-ylmethyl ester] and `CC[C@@H]1C[C@H](N(Cc2cc(C(F)(F)F)cc(C(F)(F)F)c2)c2ncc(-c3cnn(C)c3)cn2)CN1C(=O)OC1CCOCC1` [Example 7-4, (2R,4S)-4-{(3,5-Bis-trifluoromethyl-benzyl)-[5-(1-methyl-1H-pyrazol-4-yl)-pyrimidin-2-yl]-amino}-2-ethyl-pyrrolidine-1-carboxylic acid tetrahydro-pyran-4-yl ester] are within 1.5-fold of each other in IC50: 46 nM for the first, 60 nM for the second.

`CC[C@@H]1C[C@H](N(Cc2cc(C(F)(F)F)cc(C(F)(F)F)c2)c2ncc(-c3cnn(C)c3)cn2)CN1C(=O)N1CCOCC1` [Example 17, ((2R,4S)-4-{(3,5-Bis-trifluoromethyl-benzyl)-[5-(1-methyl-1H-pyrazol-4-yl)-pyrimidin-2-yl]-amino}-2-ethyl-pyrrolidin-1-yl)-morpholin-4-yl-methanone] and `CC[C@@H]1C[C@H](N(Cc2cc(C(F)(F)F)cc(C(F)(F)F)c2)c2ncc(-c3cn[nH]c3)cn2)CN1C(=O)OC(C)C` [Example 14, (2R,4S)-4-{(3,5-Bis-trifluoromethyl-benzyl)-[5-(1H-pyrazol-4-yl)-pyrimidin-2-yl]-amino}-2-ethyl-pyrrolidine-1-carboxylic acid isopropyl ester] are within 1.5-fold of each other in IC50: 32 nM for the first, 34 nM for the second.

In the case of `CC[C@@H]1C[C@H](N(Cc2cc(C(F)(F)F)cc(C(F)(F)F)c2)c2ncc(N3CC[C@H](O)C3)cn2)CN1C(=O)OC(C)C` [Example 11, (2R,4S)-4-{(3,5-Bis-trifluoromethyl-benzyl)-[5-((S)-3-hydroxy-pyrrolidin-1-yl)-pyrimidin-2-yl]-amino}-2-ethyl-pyrrolidine-1-carboxylic acid isopropyl ester], the IC50 was 72 nM.
